From patent publication US9873667B2, “Arylsulfanyl compounds and compositions for delivering active agents” (EMISPHERE TECHNOLOGIES INC., priority 2006, dated 2018)

How the values were obtained:
[1] = Oral delivery of LHRH with delivery agent; plasma LHRH concentration; type: in vivo, male Sprague-Dawley rats; conditions: Delivery Agent: 200 mg/kg, LHRH: 1 mg/kg
Protocol: Oral gavage dosing solutions of delivery agent compound and LHRH in phosphate buffer were prepared by mixing. A solution of the delivery agent compound was made either with the sodium salt of the delivery agent compound or by converting the free acid to its sodium salt. A solution of the delivery agent compound was prepared in phosphate buffer and stirred, adding one equivalent of sodium hydroxide (1.0 N) when making the sodium salt. The final dosing solutions were prepared by mixing the delivery agent compound solution with a LHRH stock solution (2.75 ml with a concentration of 20 mg/ml in aqueous solution). The pH was adjusted, if necessary, to between about 7 and 8.8.
(§1) Male Sprague-Dawley rats weighing between about 250-300 g were fasted for 24 hours. A dosing group of five animals was administered one of the dosing solutions. An 11 cm Rusch 8 French catheter was adapted to a 1 ml syringe with a pipette tip. The syringe was filled with the dosing solution by drawing the solution through the catheter, which was then wiped dry. The catheter was placed down the esophagus leaving 1 cm of tubing past the incisors. The dosing solution was administered by pressing the syringe plunger.
Blood samples were collected through retroorbital bleeding of approximately 0.4 ml of blood volume using EDTA tubes at time=0 (pre-dose), 2, 10, 15 and 30 minutes. The five samples from each time period were pooled. Previous studies indicated baseline values of about zero. The maximum absorption at the Tmax is reported below in Table 7. As controls, 4-(3-methyl phenoxy) butyric acid (D.A. “B”), the mesylate salt of (4-(8-(2-hydroxyphenoxy)octyl) morpholine (D.A. “C”), 4-(4-(2-hydroxyphenoxy)butyl) morpholine (D.A. “D”), and 4-(6-(2-hydroxyphenoxy)hexyl) morpholine (D.A. “E”) were also administered according to the same protocol and their results are also shown in FIG. 6.

[2] = system: Blood glucose levels; assay: Oral delivery of insulin with delivery agent compound; blood glucose by glucometer; type: in vivo, male Sprague-Dawley rats
Protocol: Insulin stock solution (15 mg/ml) (Human zinc insulin, Calbiochem-Novabiochem Corp., La Jolla, Calif.) was prepared with deionized water. Oral dosing compositions containing 200 mg/kg of delivery agent compound and 0.5 mg/kg of insulin in aqueous solution were prepared with the delivery agent compound shown in Table 1 below. Either the sodium salt of the delivery agent compound was used or the free acid was converted to the sodium salt with one equivalent of sodium hydroxide.
The dosing solution was administered to fasted male Sprague-Dawley rats by oral gavage with an average weight of about 225-250 grams. Blood glucose levels were then determined by glucometer (One Touch Ultra®, LifeScan, Inc.) and compared to vehicle control (1 ml/kg of water). Samples were collected prior to dosing (time 0) and at 15, 30, 45 and 60 minutes after dosing. The % glucose reduction values in Table 1 are values found at the C minimum, and are an average % reduction with respect to the number of times the experiment was run for each delivery agent.
0.5 mg/kg of Insulin and 25-100 mg/kg of delivery agent compound (particular amount shown in Table 2 below) was administered to male Sprague-Dawley rats with an average weight of about 225-250 grams. The purpose of this test was to ascertain the dose response of the delivery agent compound. Glucose reduction was determined as set forth in connection with the data in Table 1.
Insulin Titrations were performed with Delivery Agent 29 in order to gauge the effect of varying dosages of insulin.

[3] = system: activated partial thromboplastin time (APTT); assay: Intracolonic delivery of heparin with delivery agent; clotting time (APTT); type: in vivo, male Sprague-Dawley rats; conditions: Delivery Agent 50 mg/kg, USP Heparin 25 mg/kg
Protocol: Oral gavage and/or intracolonic (IC) dosing solutions containing delivery agent compound and heparin sodium USP were prepared in 25% aqueous propylene glycol. Either the sodium salt of the delivery agent compound was used or the free acid was converted to the sodium salt with one equivalent of sodium hydroxide. The delivery agent compound and heparin (about 166-182 IU/mg) were mixed by vortex as dry powders. This dry mixture was dissolved in 25% v/v aqueous propylene glycol, vortexed, and placed in a sonicator (about 37° C.). The pH was adjusted to about 7 (6.5-8.5) with aqueous NaOH (2N). The dosing solution was sonicated to produce a clear solution. The final volume was adjusted to about 3.0 ml.
as §1, with “about 275-350” for “about 250-300”, “24 hours and anesthetized with ketamine hydrochloride (88 mg/kg) intramuscularly immediately prior to dosing and again as needed to maintain anesthesia.” for “24 hours.”, “animals were” for “animals was”, “solutions. For oral gavage dosing, an” for “solutions. An”, “with” for “with the”
For intracolonic (IC) dosing, a 7.5 cm, 8 French Rusch catheter was adapted to a 1 ml syringe with a pipette tip. The dosing catheter was inserted into the colon through the anus until the tube was no longer visible. The dosing solution was expressed slowly into the colon by pressing the syringe plunger.
Citrated blood samples were collected by cardiac puncture following the administration of ketamine (88 mg/kg), typically at 0.25, 0.5, 1.0 and 1.5 hours after dosing. Heparin absorption was verified by an increase in clotting time measured by the activated partial thromboplastin time (APTT) according to the method of Henry, J. B., Clinical Diagnosis and Management by Laboratory Methods, Philadelphia, Pa., W.B. Saunders (1979), which is hereby incorporated by reference. Previous studies indicated baseline values of about 20 seconds. Results from the animals in each group were averaged for each time points and the highest of these averages (i.e. mean peak APTT) is reported.

[4] = Oral delivery of heparin with delivery agent; plasma heparin concentration; type: in vivo, male Sprague-Dawley rats; conditions: Delivery Agent 200 mg/kg, Heparin 80 mg/kg
[5] = Oral delivery of caspofungin acetate with delivery agent; plasma caspofungin acetate concentration; type: in vivo, male Sprague-Dawley rats; conditions: Delivery Agent 200 mg/kg, caspofungin acetate: 25 mg/kg
Protocol: Oral gavage dosing solutions of delivery agent compound and caspofungin acetate (Merck & Co., Whitehouse Station, N.J.) in phosphate buffer were prepared by mixing. A solution of the delivery agent compound was made either with the sodium salt of the delivery agent compound or by converting the free acid to its sodium salt. A solution of the delivery agent compound was prepared in phosphate buffer and stirred, adding one equivalent of sodium hydroxide (1.0 N) when making the sodium salt. The final dosing solutions were prepared by mixing the delivery agent compound solution with a caspofungin acetate stock solution (2.5 ml with a concentration of 100 mg/ml in aqueous solution). The pH was adjusted, if necessary, to between about 7 and 8.8. Male Sprague-Dawley rats weighing between about 250-300 g were fasted for 24 hours. A dosing group of five animals was administered one of the dosing solutions. An 11 cm Rusch 8 French catheter was adapted to a 1 ml syringe with a pipette tip. The syringe was filled with the dosing solution by drawing the solution through the catheter, which was then wiped dry. The catheter was placed down the esophagus leaving 1 cm of tubing past the incisors. The dosing solution was administered by pressing the syringe plunger. Blood samples were collected through retroorbital bleeding at time=0 (pre-dose), 15, 30, 60, 240, and 480 minutes. […]

[6] = oral gavage, 200 mg/kg Delivery Agent Compound, 0.5 mg/kg Insulin, value at C minimum vs vehicle control

For `COc1ccccc1SCCCCCCCC(=O)O` [Compound 1, 8-(2-Methoxy-phenylsulfanyl)-octanoic acid], the melting point was 62 to 63 °C, the Tmax [1] was 5 min and the “% Glucose Reduction” value [2, 6] was −0.2%. The “APTT (mean peak)” value [3] was 180 s and the Tmax ([3]; time of peak APTT) was 30 min.

For `Cc1ccc(C)c(SCCCCCCCC(=O)O)c1` [Compound 2, 8-(2,5-Dimethyl-phenylsulfanyl)-octanoic acid], the Tmax [4] was 45 min, the melting point was 60 to 63 °C and the “% Glucose Reduction” value ([2]; dose response, Delivery Agent Compound 25 mg/kg, Insulin 0.5 mg/kg) was −10.0%.

Compound `Cc1ccc(C)c(SCCCCCC(=O)O)c1` [Compound 6, 6-(2,5-Dimethyl-phenylsulfanyl)-hexanoic acid] has a Tmax [4] of 15 min, a melting point of 61 to 62 °C and a Tmax [1] of 5 min. The “% Glucose Reduction” value ([2]; dose response, Delivery Agent Compound 50 mg/kg, Insulin 0.5 mg/kg) was −15.8%, the “% Glucose Reduction” value ([2]; dose response, Delivery Agent Compound 100 mg/kg, Insulin 0.5 mg/kg) was −19.2% and the “% Glucose Reduction” value [2, 6] was −9.8 ± 30.4%.

Work on `Cc1ccc(C)c(SCCCC(=O)O)c1` [Compound 7, 4-(2,5-Dimethyl-phenylsulfanyl)-butyric acid] yielded a Tmax [4] of 60 min, a melting point of 61 to 62 °C and a Tmax [1] of 5 min.

In the case of `COc1ccc(SCCCCC(=O)O)cc1` [Compound 14, 5-(4-Methoxy-phenylsulfanyl)-pentanoic acid], the Tmax [5] is reported as 60 min.
